Key:
[1] = tested on: U937 cells; assay: Counter screen: U937 cell viability without TSQ cocktail (off-target effect); parameters: species or system human; conditions: Homo sapiens, U-937, compound without TSQ cocktail, read-out: Off-target effect (IC50 cell-based assay)
How it was run: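 Off-target viability counter screen: compounds titrated 36 μM down 1:3 over 10 points (0.3% DMSO) on 20,000 U937 cells/well, no TNF/Smac mimetic/Q-VD-OPh added, 48 h incubation. ATP-based CellTiter-Glo luminescence, four-parameter logistic IC50.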

[2] = target: human RIPK3 (Homo sapiens (Human), UniProt Q9Y572); assay: KINOMEscan binding assay, human RIPK3; conditions: equilibrium dissociation constant
How it was run: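 Active-site competition binding: DNA-tagged kinase (T7 phage fusion from BL21-derived E. coli lysate, or HEK-293-expressed) captured on immobilized-ligand beads, with bound kinase in the eluate quantified by qPCR. Compounds ran as 11-point 3-fold dilutions, 1% DMSO, top 30,000 nM for most. Kd came from a Hill fit (slope −1).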

human RIPK3, sequence (Q9Y572 whole entry, the tested form may be a part): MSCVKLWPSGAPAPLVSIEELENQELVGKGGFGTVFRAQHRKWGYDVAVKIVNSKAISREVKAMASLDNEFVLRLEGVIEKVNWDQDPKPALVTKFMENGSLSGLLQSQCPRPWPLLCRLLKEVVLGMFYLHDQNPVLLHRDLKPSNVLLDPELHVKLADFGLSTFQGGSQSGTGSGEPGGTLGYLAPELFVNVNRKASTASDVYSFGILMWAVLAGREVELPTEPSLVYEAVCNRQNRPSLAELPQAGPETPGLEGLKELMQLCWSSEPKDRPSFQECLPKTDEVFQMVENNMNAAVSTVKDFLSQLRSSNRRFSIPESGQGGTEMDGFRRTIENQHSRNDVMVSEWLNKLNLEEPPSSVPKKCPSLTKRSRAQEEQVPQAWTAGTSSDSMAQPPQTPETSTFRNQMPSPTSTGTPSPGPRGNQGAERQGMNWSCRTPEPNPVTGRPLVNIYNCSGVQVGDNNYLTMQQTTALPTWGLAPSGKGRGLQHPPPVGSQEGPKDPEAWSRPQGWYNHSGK

Row | SMILES | Kd [2] | IC50 [1]
1 | CC1CN(C)CC(C)C1n1cc(-c2cnc(N)c3c(-c4ccc(NS(=O)(=O)C(F)F)c(O[C@@H](C)c5ccc(F)cc5)c4)nn(C)c23)cn1 (stereo partly drawn) [Compound 172, N-(4-{4-amino-1-methyl-7-[1-(1,3,5-trimethylpiperidin-4-yl)-1H-pyrazol-4-yl]-1H-pyrazolo[4,3-c]pyridin-3-yl}-2-[(1S)-1-(4-fluorophenyl)ethoxy]phenyl)-1,1-difluoromethanesulfonamide] | > 10 µM | > 10 µM
2 | C[C@H](Oc1cc(-c2nn(C)c3c(-c4cnn(CCC(F)(F)F)c4)cnc(N)c23)ccc1NS(=O)(=O)C(F)F)c1ccc(F)cc1 [Compound 131, (S)-N-(4-(4-amino-1-methyl-7-(1-(3,3,3-trifluoropropyl)-1H-pyrazol-4-yl)-1H-pyrazolo[4,3-c]pyridin-3-yl)-2-(1-(4-fluorophenyl)ethoxy)phenyl)-1,1-difluoromethanesulfonamide] | > 10 µM | > 10 µM
3 | Cc1c(-c2cnc(N)c3c(-c4ccc(NS(=O)(=O)C(F)F)c(O[C@@H](C)c5ccc(F)cc5)c4)nn(C)c23)cnn1C1CCN(C)C(C)(C)C1 (stereo partly drawn) [Compound 157, N-(4-(4-amino-1-methyl-7-(5-methyl-1-(1,2,2-trimethylpiperidin-4-yl)-1H-pyrazol-4-yl)-1H-pyrazolo[4,3-c]pyridin-3-yl)-2-((S)-1-(4-fluorophenyl)ethoxy)phenyl)-1,1-difluoromethanesulfonamide] | > 10 µM | > 10 µM
4 | C[C@H](Oc1cc(-c2nn(C)c3c(-c4cnn(C5C[C@H]6CNC[C@H]6C5)c4)cnc(N)c23)ccc1NS(=O)(=O)C(F)F)c1ccc(F)cc1 (stereo partly drawn) [Compound 163, N-(4-(4-amino-1-methyl-7-(1-((3aR,6aS)-octahydrocyclopenta[c]pyrrol-5-yl)-1H-pyrazol-4-yl)-1H-pyrazolo[4,3-c]pyridin-3-yl)-2-((S)-1-(4-fluorophenyl)ethoxy)phenyl)-1,1-difluoromethanesulfonamide] | > 10 µM | > 10 µM
5 | C[C@H](Oc1cc(-c2nn(C)c3c(-c4cnn(C5C[C@@H]6CN(C)C[C@@H]6C5)c4)cnc(N)c23)ccc1NS(=O)(=O)C(F)F)c1ccc(F)cc1 (stereo partly drawn) [Compound 164, N-(4-(4-amino-1-methyl-7-(1-((3aR,6aS)-2-methyloctahydrocyclopenta[c]pyrrol-5-yl)-1H-pyrazol-4-yl)-1H-pyrazolo[4,3-c]pyridin-3-yl)-2-((S)-1-(4-fluorophenyl)ethoxy)phenyl)-1,1-difluoromethanesulfonamide] | > 10 µM | > 10 µM
6 | C[C@H](Oc1cc(-c2nn(C)c3c(-c4cnn(CC(F)(F)F)c4)cnc(N)c23)ccc1NS(=O)(=O)C(F)F)c1ccc(F)cc1 [Compound 116, (S)-N-(4-(4-amino-1-methyl-7-(1-(2,2,2-trifluoroethyl)-1H-pyrazol-4-yl)-1H-pyrazolo[4,3-c]pyridin-3-yl)-2-(1-(4-fluorophenyl)ethoxy)phenyl)-1,1-difluoromethanesulfonamide] | > 10 µM | > 10 µM
7 | CC1C(n2cc(-c3cnc(N)c4c(-c5ccc(NS(=O)(=O)C(F)F)c(O[C@@H](C)c6ccc(F)cc6)c5)nn(C)c34)cn2)CN1C (stereo partly drawn) [Compound 147, N-(4-(4-amino-7-(1-(1,2-dimethylazetidin-3-yl)-1H-pyrazol-4-yl)-1-methyl-1H-pyrazolo[4,3-c]pyridin-3-yl)-2-((S)-1-(4-fluorophenyl)ethoxy)phenyl)-1,1-difluoromethanesulfonamide] | > 10 µM | > 10 µM
8 | C[C@H](Oc1cc(-c2nn(C)c3c(-c4cnn(C5CCN(CC(F)(F)F)C(C)(C)C5)c4)cnc(N)c23)ccc1NS(=O)(=O)C(F)F)c1ccc(F)cc1 (stereo partly drawn) [Compound 167, N-(4-(4-amino-7-(1-(2,2-dimethyl-1-(2,2,2-trifluoroethyl)piperidin-4-yl)-1H-pyrazol-4-yl)-1-methyl-1H-pyrazolo[4,3-c]pyridin-3-yl)-2-((S)-1-(4-fluorophenyl)ethoxy)phenyl)-1,1-difluoromethanesulfonamide] | > 10 µM | 1 to 10 µM
9 | C[C@H](Oc1cc(-c2nn(C)c3c(-c4cnn(C5CC6CCC(C5)N6CC(F)(F)F)c4)cnc(N)c23)ccc1NS(=O)(=O)C(F)F)c1ccc(F)cc1 (stereo partly drawn) [Compound 153, N-(4-(4-amino-1-methyl-7-(1-(8-(2,2,2-trifluoroethyl)-8-azabicyclo[3.2.1]octan-3-yl)-1H-pyrazol-4-yl)-1H-pyrazolo[4,3-c]pyridin-3-yl)-2-((S)-1-(4-fluorophenyl)ethoxy)phenyl)-1,1-difluoromethanesulfonamide] | > 10 µM | > 10 µM
10 | CC(C)N(C)C(=O)C(C)n1cc(-c2cnc(N)c3c(-c4ccc(NS(=O)(=O)C(F)F)c(O[C@@H](C)c5ccc(F)cc5)c4)nn(C)c23)cn1 (stereo partly drawn) [Compound 81, 2-(4-(4-amino-3-(4-((difluoromethyl)sulfonamido)-3-((S)-1-(4-fluorophenyl)ethoxy)phenyl)-1-methyl-1H-pyrazolo[4,3-c]pyridin-7-yl)-1H-pyrazol-1-yl)-N-isopropyl-N-methylpropanamide] | > 10 µM | > 10 µM

Further lines, with some results ahead:

Row | Kd [2] | SMILES | IC50 [1]
11 | > 10 µM | [2H]C([2H])([2H])N1CCC(n2cc(-c3cnc(N)c4c(-c5ccc(NS(=O)(=O)C(F)F)c(O[C@@H](C)c6ccc(F)cc6)c5)nn(C)c34)cn2)CC1 [Compound 103] | > 10 µM
12 | > 10 µM | Cn1nc(-c2ccc(NS(=O)(=O)C(F)F)c(OCc3ccc(Cl)c(F)c3)c2)c2c(N)ncc(-c3cnn(C4CCOCC4)c3)c21 [Compound 132, N-(4-(4-amino-1-methyl-7-(1-(tetrahydro-2H-pyran-4-yl)-1H-pyrazol-4-yl)-1H-pyrazolo[4,3-c]pyridin-3-yl)-2-((4-chloro-3-fluorobenzyl)oxy)phenyl)-1,1-difluoromethanesulfonamide] | > 10 µM
13 | > 10 µM | C[C@H](Oc1cc(-c2nn(C)c3c(-c4cnn(C5CCN(C)C(C)(C)C5)c4)cnc(N)c23)ccc1NS(=O)(=O)C(F)F)c1ccc(Cl)cc1 (stereo partly drawn) [Compound 159, N-(4-(4-amino-1-methyl-7-(1-(1,2,2-trimethylpiperidin-4-yl)-1H-pyrazol-4-yl)-1H-pyrazolo[4,3-c]pyridin-3-yl)-2-((S)-1-(4-chlorophenyl)ethoxy)phenyl)-1,1-difluoromethanesulfonamide] | > 10 µM
14 | > 10 µM | C[C@H](Oc1cc(-c2nn(C)c3c(-c4cnn(C5CCN(C)C6(CC6)C5)c4)cnc(N)c23)ccc1NS(=O)(=O)C(F)F)c1ccc(F)cc1 (single isomer, unassigned) [Compound 170, N-(4-(4-amino-1-methyl-7-(1-((S*)-4-methyl-4-azaspiro[2.5]octan-7-yl)-1H-pyrazol-4-yl)-1H-pyrazolo[4,3-c]pyridin-3-yl)-2-((S)-1-(4-fluorophenyl)ethoxy)phenyl)-1,1-difluoromethanesulfonamide] | > 10 µM
15 | > 10 µM | C[C@H](Oc1cc(-c2nn(C)c3c(-c4cnn(C5CCOCC5)c4)cnc(N)c23)ccc1NS(=O)(=O)C(F)F)c1ccc(F)cc1 [Compound 19, (S)-N-(4-(4-amino-1-methyl-7-(1-(tetrahydro-2H-pyran-4-yl)-1H-pyrazol-4-yl)-1H-pyrazolo[4,3-c]pyridin-3-yl)-2-(1-(4-fluorophenyl)ethoxy)phenyl)-1,1-difluoromethanesulfonamide] | > 10 µM

Source: US20250059188A1, “ARYLSULPHONAMIDE COMPOUNDS” (Anaxis Pharma Pty Ltd, priority 2021, published 2025)
